Experimental data: patent US11912686B2 (Gilead Sciences, Inc., priority 2020, dated 2024)

Target: human LPAR1 (Homo sapiens (Human), UniProt Q92633)
Assay: LPAR1 intracellular calcium mobilization assay (antagonist mode, FLIPR)
Format: cell-based
Settings: CHO-K1 EDG2 cells expressing human LPAR1, LPA 18:2 at EC80 (100 nM), test compound 0.5 nM to 10 μM

Chain of human LPAR1 (Q92633 whole entry): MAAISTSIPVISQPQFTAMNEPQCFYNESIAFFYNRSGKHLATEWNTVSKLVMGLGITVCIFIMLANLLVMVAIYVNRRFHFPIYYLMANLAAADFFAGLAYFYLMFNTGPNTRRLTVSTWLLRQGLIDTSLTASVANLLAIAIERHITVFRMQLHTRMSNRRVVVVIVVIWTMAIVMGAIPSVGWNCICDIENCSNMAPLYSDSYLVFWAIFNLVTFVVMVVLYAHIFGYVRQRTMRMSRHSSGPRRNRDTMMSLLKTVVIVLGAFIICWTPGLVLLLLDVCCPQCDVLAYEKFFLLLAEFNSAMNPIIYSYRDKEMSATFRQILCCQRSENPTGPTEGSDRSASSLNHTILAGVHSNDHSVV

SMILES	EC50 [nM]
C[C@@H](OC(=O)Nc1c(-c2ccc(NC(=O)c3ccnc(F)c3F)cn2)nnn1C)c1cccnc1F [Compound 294, (R)-1-(2-fluoropyridin-3-yl)ethyl (4-(5-(2,3-difluoroisonicotinamido)pyridin-2-yl)-1-methyl-1H-1,2,3-triazol-5-yl)carbamate]	238
C[C@@H](OC(=O)Nc1c(-c2ccc(NC(=O)c3ccc(C(F)F)nc3)cn2)nnn1C)c1cccnc1F [Compound 295, (R)-1-(2-fluoropyridin-3-yl)ethyl (4-(5-(6-(difluoromethyl)nicotinamido)pyridin-2-yl)-1-methyl-1H-1,2,3-triazol-5-yl)carbamate]	391
C[C@@H](OC(=O)Nc1c(-c2ccc(NC(=O)c3ccc(C(F)(F)F)nc3)cn2)nnn1C)c1cccnc1F [Compound 296, (R)-1-(2-fluoropyridin-3-yl)ethyl (1-methyl-4-(5-(6-(trifluoromethyl)nicotinamido)pyridin-2-yl)-1H-1,2,3-triazol-5-yl)carbamate]	46.9
C[C@@H](OC(=O)Nc1c(-c2ccc(NC(=O)C3(C#N)CNC3)cn2)nnn1C)c1cc(F)cnc1F [Compound 297, (R)-1-(2,5-difluoropyridin-3-yl)ethyl (4-(5-(3-cyanoazetidine-3-carboxamido)pyridin-2-yl)-1-methyl-1H-1,2,3-triazol-5-yl)carbamate]	354
C[C@@H](OC(=O)Nc1c(-c2ccc(NC(=O)C3(C(F)F)CNC3)cn2)nnn1C)c1cc(F)cnc1F [Compound 298, (R)-1-(2,5-difluoropyridin-3-yl)ethyl (4-(5-(3-(difluoromethyl)azetidine-3-carboxamido)pyridin-2-yl)-1-methyl-1H-1,2,3-triazol-5-yl)carbamate]	1250
C[C@@H](OC(=O)Nc1c(-c2ccc(NC(=O)C3(C#N)CCNCC3)cn2)nnn1C)c1cc(F)cnc1F [Compound 299, (R)-1-(2,5-difluoropyridin-3-yl)ethyl (4-(5-(4-cyanopiperidine-4-carboxamido)pyridin-2-yl)-1-methyl-1H-1,2,3-triazol-5-yl)carbamate]	4990
C[C@@H](OC(=O)Nc1c(-c2ccc(NC(=O)C3(CN)CC3(F)F)cn2)nnn1C)c1cc(F)cnc1F (stereo partly drawn) [Compound 300, (R)-1-(2,5-difluoropyridin-3-yl)ethyl (4-(5-(1-(aminomethyl)-2,2-difluorocyclopropane-1-carboxamido)pyridin-2-yl)-1-methyl-1H-1,2,3-triazol-5-yl)carbamate]	961
C[C@@H](OC(=O)Nc1c(-c2ccc(NC(=O)C3(CN)CC(F)(F)C3)cn2)nnn1C)c1cc(F)cnc1F [Compound 301, (R)-1-(2,5-difluoropyridin-3-yl)ethyl (4-(5-(1-(aminomethyl)-3,3-difluorocyclobutane-1-carboxamido)pyridin-2-yl)-1-methyl-1H-1,2,3-triazol-5-yl)carbamate]	66.9
C[C@@H](OC(=O)Nc1c(-c2ccc(NC(=O)C3(C#N)CCNC3)cn2)nnn1C)c1cc(F)cnc1F (stereo partly drawn) [Compound 302, (R)-1-(2,5-difluoropyridin-3-yl)ethyl (4-(5-(3-cyanopyrrolidine-3-carboxamido)pyridin-2-yl)-1-methyl-1H-1,2,3-triazol-5-yl)carbamate]	669
C[C@@H](OC(=O)Nc1c(-c2ccc(NC(=O)C3(CN)CCC3)cn2)nnn1C)c1cc(F)cnc1F [Compound 303, (R)-1-(2,5-difluoropyridin-3-yl)ethyl (4-(5-(1-(aminomethyl)cyclobutane-1-carboxamido)pyridin-2-yl)-1-methyl-1H-1,2,3-triazol-5-yl)carbamate]	565
C[C@@H](OC(=O)Nc1c(-c2ccc(NC(=O)C3(CN)CC(F)(F)C3)cn2)nnn1C)c1cc(F)cnc1Cl [Compound 304, (R)-1-(2-chloro-5-fluoropyridin-3-yl)ethyl (4-(5-(1-(aminomethyl)-3,3-difluorocyclobutane-1-carboxamido)pyridin-2-yl)-1-methyl-1H-1,2,3-triazol-5-yl)carbamate]	46.4
C[C@@H](OC(=O)Nc1c(-c2ccc(NC(=O)C3(C#N)CN(CC(F)(F)F)C3)cn2)nnn1C)c1cc(F)cnc1F [Compound 305, (R)-1-(2,5-difluoropyridin-3-yl)ethyl (4-(5-(3-cyano-1-(2,2,2-trifluoroethyl)azetidine-3-carboxamido)pyridin-2-yl)-1-methyl-1H-1,2,3-triazol-5-yl)carbamate]	1000
C[C@@H](OC(=O)Nc1c(-c2ccc(NC(=O)[C@H]3C[C@H](NCC(F)(F)F)C3)cn2)nnn1C)c1cccnc1Cl [Compound 306, (R)-1-(2-chloropyridin-3-yl)ethyl (1-methyl-4-(5-((1r,3R)-3-((2,2,2-trifluoroethyl)amino)cyclobutane-1-carboxamido)pyridin-2-yl)-1H-1,2,3-triazol-5-yl)carbamate]	99.7
C[C@@H](OC(=O)Nc1c(-c2ccc(NC(=O)[C@H]3[C@@H]4CN(CC(F)(F)F)C[C@@H]43)cn2)nnn1C)c1cccnc1Cl [Compound 308, (R)-1-(2-chloropyridin-3-yl)ethyl (1-methyl-4-(5-((1R,5S,6r)-3-(2,2,2-trifluoroethyl)-3-azabicyclo[3.1.0]hexane-6-carboxamido)pyridin-2-yl)-1H-1,2,3-triazol-5-yl)carbamate]	337
C[C@@H](OC(=O)Nc1c(-c2ccc(NC(=O)C3CN(CC(F)(F)F)C3)cn2)nnn1C)c1cccnc1Cl [Compound 309, (R)-1-(2-chloropyridin-3-yl)ethyl (1-methyl-4-(5-(1-(2,2,2-trifluoroethyl)azetidine-3-carboxamido)pyridin-2-yl)-1H-1,2,3-triazol-5-yl)carbamate]	133
C[C@@H](OC(=O)Nc1c(-c2ccc(NC(=O)C3(N)CC(F)(F)C3)cn2)nnn1C)c1cccnc1Cl [Compound 310, (R)-1-(2-chloropyridin-3-yl)ethyl (4-(5-(1-amino-3,3-difluorocyclobutane-1-carboxamido)pyridin-2-yl)-1-methyl-1H-1,2,3-triazol-5-yl)carbamate]	454
C[C@@H](OC(=O)Nc1c(-c2ccc(NC(=O)C3CC(NC4CC4)C3)cn2)nnn1C)c1cccnc1Cl (some centres unmarked) [Compound 311]	1530
CC(=O)NC12CC(C(=O)Nc3ccc(-c4nnn(C)c4NC(=O)O[C@H](C)c4cccnc4Cl)nc3)(C1)C2 [Compound 312]	1530
Cc1nc(-c2nnn(C)c2NC(=O)O[C@H](C)c2cc(F)cnc2F)ccc1NC(=O)C1(C#N)CC1 [Compound 313, (R)-1-(2,5-difluoropyridin-3-yl)ethyl (4-(5-(1-cyanocyclopropane-1-carboxamido)-6-methylpyridin-2-yl)-1-methyl-1H-1,2,3-triazol-5-yl)carbamate]	51.8
Cc1nc(-c2nnn(C)c2NC(=O)O[C@H](C)c2cc(F)cnc2F)ccc1NC(=O)c1cnc(C(F)(F)F)nc1 [Compound 314, (R)-1-(2,5-difluoropyridin-3-yl)ethyl (1-methyl-4-(6-methyl-5-(2-(trifluoromethyl)pyrimidine-5-carboxamido)pyridin-2-yl)-1H-1,2,3-triazol-5-yl)carbamate]	2.9
C[C@@H](OC(=O)Nc1c(-c2ccc(NC(=O)c3ccc(C(F)(F)F)nc3)c(F)n2)nnn1C)c1cccnc1Cl [Compound 315, (R)-1-(2-chloropyridin-3-yl)ethyl (4-(6-fluoro-5-(6-(trifluoromethyl)nicotinamido)pyridin-2-yl)-1-methyl-1H-1,2,3-triazol-5-yl)carbamate]	12.7
C[C@@H](OC(=O)Nc1c(-c2ccc(NC(=O)C3(C#N)CC3)c(F)n2)nnn1C)c1cccnc1Cl [Compound 316, (R)-1-(2-chloropyridin-3-yl)ethyl (4-(5-(1-cyanocyclopropane-1-carboxamido)-6-fluoropyridin-2-yl)-1-methyl-1H-1,2,3-triazol-5-yl)carbamate]	41.6
C[C@@H](OC(=O)Nc1c(-c2cc(F)c(NC(=O)c3ccc(C(F)(F)F)nc3)cn2)nnn1C)c1cccnc1Cl [Compound 317, (R)-1-(2-chloropyridin-3-yl)ethyl (4-(4-fluoro-5-(6-(trifluoromethyl)nicotinamido)pyridin-2-yl)-1-methyl-1H-1,2,3-triazol-5-yl)carbamate]	90.5
C[C@@H](OC(=O)Nc1c(-c2ccc(NC(=O)c3cnc(C(F)(F)F)nc3)c(F)n2)nnn1C)c1cccnc1Cl [Compound 318, (R)-1-(2-chloropyridin-3-yl)ethyl (4-(6-fluoro-5-(2-(trifluoromethyl)pyrimidine-5-carboxamido)pyridin-2-yl)-1-methyl-1H-1,2,3-triazol-5-yl)carbamate]	9.5
C[C@@H](OC(=O)Nc1c(-c2ncc(NC(=O)c3ccc(Cl)nc3)cn2)nnn1C)c1cc(F)cnc1F [Compound 319, (R)-1-(2,5-difluoropyridin-3-yl)ethyl (4-(5-(6-chloronicotinamido)pyrimidin-2-yl)-1-methyl-1H-1,2,3-triazol-5-yl)carbamate]	1500
C[C@@H](OC(=O)Nc1c(-c2cnc(NC(=O)c3ccc(Cl)nc3)cn2)nnn1C)c1cc(F)cnc1F [Compound 320, (R)-1-(2,5-difluoropyridin-3-yl)ethyl (4-(5-(6-chloronicotinamido)pyrazin-2-yl)-1-methyl-1H-1,2,3-triazol-5-yl)carbamate]	131
C[C@@H](OC(=O)Nc1c(-c2cnc(NC(=O)c3ccc(C(F)F)nc3)cn2)nnn1C)c1cc(F)cnc1F [Compound 321, (R)-1-(2,5-difluoropyridin-3-yl)ethyl (4-(5-(6-(difluoromethyl)nicotinamido)pyrazin-2-yl)-1-methyl-1H-1,2,3-triazol-5-yl)carbamate]	309
C[C@@H](OC(=O)Nc1c(-c2cnc(NC(=O)c3ccc(C(F)(F)F)nc3)cn2)nnn1C)c1cc(F)cnc1F [Compound 322, (R)-1-(2,5-difluoropyridin-3-yl)ethyl (1-methyl-4-(5-(6-(trifluoromethyl)nicotinamido)pyrazin-2-yl)-1H-1,2,3-triazol-5-yl)carbamate]	170
C[C@@H](OC(=O)Nc1c(-c2cnc(NC(=O)c3ccnc(F)c3F)cn2)nnn1C)c1cc(F)cnc1F [Compound 323, (R)-1-(2,5-difluoropyridin-3-yl)ethyl (4-(5-(2,3-difluoroisonicotinamido)pyrazin-2-yl)-1-methyl-1H-1,2,3-triazol-5-yl)carbamate]	178
